{"source": "patent US9102712B2", "about": "“Dendrimeric peptides, pharmaceutical compositions and methods of using the same” (New York University, priority 2010, dated 2015)", "format_in_all_cases": "cell-based", "key": {"[1]": {"test_system": "E. coli (D31)", "test": "Antibacterial broth microdilution, E. coli", "details": "50% inhibition of growth, MH broth, 18 hrs at 37° C., Table 1", "procedure": "(§1) The antibacterial activity of each dendrimer peptide was tested by following standard broth microdilution protocols recommended by the National Committee for Clinical Laboratory Standard (NCCLS 2004). Antibacterial testing was carried out on gram-negative bacteria E. coli (D31) and gram-positive bacteria S. aureus in liquid media Mueller Hinton (MH) Brooth according to literature procedures. Dendrimers were dissolved in PBS buffer (high salt, 150 mM NaCl; low salt, 75 mM NaCl), pH 7.4 to make series of stocks of 2-fold dilution. Cultures were grown overnight on Mueller Hinton (MH) agar plates, and 3 to 5 uniform colonies of each organism were transferred with an inoculating loop to test tubes containing MH broth, and incubated at 37° C. overnight, then diluted until the turbidity matched that of the 0.5 McFarland standard (approximately 1.5×10^8 cells/mL). The resulting solutions were further diluted to give approximately 2×10^4-2×10^5 CFU/mL. 100 μL of the bacterial inoculums were incubated in 96-well plates with varying volumes of stock solution and PBS buffer to bring the total volume to 200 μL. Solutions containing the same volumes of PBS buffer and MH Broth, with and without bacteria were used as controls. After these plates were incubated with shaking for 18 hrs at 37° C. to ensure the cultures had reached log phase growth, the absorbance readings were recorded at a wavelength of 600 nm using a Absorbance Microplate Reader BIO-TEK ELX800. The 18-hour absorbance data were used to calculate the percent inhibition for each test condition. All assays were carried out in triplicate. The experimental data were fitted to sigmoidal dose-response curves using GraphPad Prism (GraphPad Software Inc., San Diego, Calif., USA)."}, "[2]": {"test_system": "fresh sheep RBC", "details": "red cells of sheep, 1 h", "procedure": "Hemolytic activity of dendrimeric compounds were assessed on fresh sheep RBC (Fitzgerald, Inc., MA). Dendrimer concentrations corresponding to 50% hemolysis were used as hemolytic dose (HD50) determined from dose-response curve. The fresh sheep RBC was washed with PBS buffer (thrice) and aliquots of cell suspension were mixed in eppendorf tubes with varying volumes of stocks and buffer for a total volume of 400 μL. These tubes were incubated at 37° C. for 1 hr, and then spun down at 3,000 rpm for 5 mins. The resulting supernatant was trasferred to a 96-well plate and the absorbances at 540 nm were measured in an Absorbance Microplate Reader BIO-TEK ELX800. Zero hemolysis and 100% hemolysis controls were obtained by incubating the cells with buffer and 1% Triton X-100, respectively. Hemolytic index (HI) was defined as HI=HD50/IC50 (Table 1 and 3)."}, "[3]": {"test_system": "S. aureus", "details": "18 h", "procedure": "as §1"}}}
{"smiles": "N=C(N)NCCC[C@H](N)C(=O)N[C@@H](Cc1c[nH]c2ccccc12)C(=O)NCCN(CCNC(=O)[C@H](Cc1c[nH]c2ccccc12)NC(=O)[C@@H](N)CCCNC(=N)N)CCNC(=O)[C@H](Cc1c[nH]c2ccccc12)NC(=O)[C@@H](N)CCCNC(=N)N", "note": "[TAEA-(WR)3, TAEA-(WR—NH2)3]", "values": [{"measurement": "E. Coli IC50", "setting": "[1]", "value": "2.07 ± 0.22", "unit": "µg/mL"}, {"measurement": "Hemolysis HD50", "setting": "[2]", "value": 3073, "unit": "µg/mL"}, {"measurement": "S. Aureus IC50", "setting": "[3]", "value": "0.97 ± 0.02", "unit": "µg/mL"}]}
